Experiments:
Assay type in all cases: ADME
Settings in all cases: 0.5 h
Cytochrome P450 1A2 = molecular target: T1, Cytochrome P450 1A2 (Homo sapiens, UniProt P05177); test: Drug metabolism in supersomes expressing human recombinant CYP1A2 assessed as enzyme-mediated N-desmethylclozapine metabolite formation at 10 uM after 30 mins measured per nmol of P450 by HPLC analysis
T1 sequence (P05177 whole entry): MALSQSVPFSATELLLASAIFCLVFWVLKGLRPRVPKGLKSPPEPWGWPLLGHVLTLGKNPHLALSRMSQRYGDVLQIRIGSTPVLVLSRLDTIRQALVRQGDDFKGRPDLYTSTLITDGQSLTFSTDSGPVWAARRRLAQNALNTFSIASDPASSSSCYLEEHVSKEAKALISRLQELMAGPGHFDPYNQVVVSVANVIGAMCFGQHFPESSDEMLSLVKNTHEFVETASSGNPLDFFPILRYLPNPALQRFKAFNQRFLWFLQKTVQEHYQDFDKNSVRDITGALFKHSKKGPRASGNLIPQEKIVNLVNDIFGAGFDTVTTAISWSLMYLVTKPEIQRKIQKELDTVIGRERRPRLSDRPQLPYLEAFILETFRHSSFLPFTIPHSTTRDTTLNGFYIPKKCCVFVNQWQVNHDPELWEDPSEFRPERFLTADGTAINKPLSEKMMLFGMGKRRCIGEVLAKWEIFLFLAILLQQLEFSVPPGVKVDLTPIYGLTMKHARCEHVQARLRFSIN

Cytochrome P450 2A6 = molecular target: T2, Cytochrome P450 2A6 (Homo sapiens, UniProt P11509); test: Drug metabolism in supersomes expressing human recombinant CYP2A6 assessed as enzyme-mediated cyanide adduct formation at 100 uM after 30 mins measured per nmol of P450 by HPLC analysis in presence of KCN
T2 sequence (P11509 whole entry): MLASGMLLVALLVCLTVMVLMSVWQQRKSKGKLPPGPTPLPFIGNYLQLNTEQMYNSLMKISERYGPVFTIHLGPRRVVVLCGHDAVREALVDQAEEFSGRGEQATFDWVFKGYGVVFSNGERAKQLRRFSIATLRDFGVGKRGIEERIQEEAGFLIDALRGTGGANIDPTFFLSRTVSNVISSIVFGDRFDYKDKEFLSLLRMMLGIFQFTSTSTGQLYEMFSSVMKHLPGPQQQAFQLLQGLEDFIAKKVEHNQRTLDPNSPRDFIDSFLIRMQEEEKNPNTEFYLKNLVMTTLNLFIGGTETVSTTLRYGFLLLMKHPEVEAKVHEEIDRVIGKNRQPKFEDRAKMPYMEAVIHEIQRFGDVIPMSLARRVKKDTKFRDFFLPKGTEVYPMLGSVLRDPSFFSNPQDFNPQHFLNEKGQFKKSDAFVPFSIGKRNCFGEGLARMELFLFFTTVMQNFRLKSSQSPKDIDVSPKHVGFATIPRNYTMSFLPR

Cytochrome P450 2C9 = Cytochrome P450 2C9 (Homo sapiens, UniProt P11712); test: Drug metabolism in supersomes expressing human recombinant CYP2C9 assessed as enzyme-mediated N-desmethylclozapine metabolite formation at 100 uM after 30 mins measured per nmol of P450 by HPLC analysis
Chain of Cytochrome P450 2C9 (P11712 whole entry): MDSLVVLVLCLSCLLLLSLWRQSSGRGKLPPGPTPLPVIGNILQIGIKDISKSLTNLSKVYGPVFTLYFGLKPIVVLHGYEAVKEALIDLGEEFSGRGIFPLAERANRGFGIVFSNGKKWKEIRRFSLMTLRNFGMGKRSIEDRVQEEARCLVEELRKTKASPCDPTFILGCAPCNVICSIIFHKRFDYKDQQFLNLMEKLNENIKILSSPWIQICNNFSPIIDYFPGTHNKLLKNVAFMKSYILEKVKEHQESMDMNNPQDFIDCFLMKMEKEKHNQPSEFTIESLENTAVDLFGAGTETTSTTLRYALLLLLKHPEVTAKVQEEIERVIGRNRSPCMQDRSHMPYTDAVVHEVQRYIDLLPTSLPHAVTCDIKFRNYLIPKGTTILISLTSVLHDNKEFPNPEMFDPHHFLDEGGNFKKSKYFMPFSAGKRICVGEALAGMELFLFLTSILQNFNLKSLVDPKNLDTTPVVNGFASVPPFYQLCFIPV

Cytochrome P450 1A1 = molecular target: T3, Cytochrome P450 1A1 (Homo sapiens, UniProt P04798); test: Drug metabolism in supersomes expressing human recombinant CYP1A1 assessed as enzyme-mediated cyanide adduct formation at 100 uM after 30 mins measured per nmol of P450 by HPLC analysis in presence of KCN
T3 sequence (P04798 whole entry): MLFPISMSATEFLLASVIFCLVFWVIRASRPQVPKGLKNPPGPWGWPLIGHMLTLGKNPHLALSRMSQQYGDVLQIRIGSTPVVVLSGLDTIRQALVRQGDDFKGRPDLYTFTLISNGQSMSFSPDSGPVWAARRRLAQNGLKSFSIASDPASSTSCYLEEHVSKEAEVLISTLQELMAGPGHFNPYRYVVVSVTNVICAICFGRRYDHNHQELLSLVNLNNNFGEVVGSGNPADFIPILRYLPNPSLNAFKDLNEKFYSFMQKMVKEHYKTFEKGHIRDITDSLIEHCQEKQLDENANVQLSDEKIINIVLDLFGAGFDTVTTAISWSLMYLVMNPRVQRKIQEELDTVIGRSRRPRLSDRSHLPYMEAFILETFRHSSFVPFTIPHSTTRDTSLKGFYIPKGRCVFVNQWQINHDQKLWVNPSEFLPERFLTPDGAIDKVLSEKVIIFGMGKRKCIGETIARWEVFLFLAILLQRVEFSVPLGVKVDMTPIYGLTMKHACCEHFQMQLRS

Cytochrome P450 2C18 = molecular target: T4, Cytochrome P450 2C18 (Homo sapiens, UniProt P33260); test: Drug metabolism in supersomes expressing human recombinant CYP2C18 assessed as enzyme-mediated cyanide adduct formation at 100 uM after 30 mins measured per nmol of P450 by HPLC analysis in presence of KCN
T4 sequence (P33260 whole entry): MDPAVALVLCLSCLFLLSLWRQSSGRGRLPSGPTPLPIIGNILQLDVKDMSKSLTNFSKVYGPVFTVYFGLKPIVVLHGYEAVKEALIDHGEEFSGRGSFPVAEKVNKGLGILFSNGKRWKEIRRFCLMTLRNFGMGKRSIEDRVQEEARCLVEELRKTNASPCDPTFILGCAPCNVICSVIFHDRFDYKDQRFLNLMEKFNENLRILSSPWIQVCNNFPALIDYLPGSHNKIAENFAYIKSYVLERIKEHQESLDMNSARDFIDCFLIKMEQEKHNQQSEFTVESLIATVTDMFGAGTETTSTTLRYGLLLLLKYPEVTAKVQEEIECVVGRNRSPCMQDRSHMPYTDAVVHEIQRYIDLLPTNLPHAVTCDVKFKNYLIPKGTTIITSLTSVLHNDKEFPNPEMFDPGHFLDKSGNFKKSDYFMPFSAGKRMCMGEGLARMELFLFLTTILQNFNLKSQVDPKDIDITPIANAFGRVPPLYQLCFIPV

Cytochrome P450 2C19 = Cytochrome P450 2C19 (Homo sapiens, UniProt P33261); test: Drug metabolism in supersomes expressing human recombinant CYP2C19 assessed as enzyme-mediated N-desmethylclozapine metabolite formation at 100 uM after 30 mins measured per nmol of P450 by HPLC analysis
Chain of Cytochrome P450 2C19 (P33261 whole entry): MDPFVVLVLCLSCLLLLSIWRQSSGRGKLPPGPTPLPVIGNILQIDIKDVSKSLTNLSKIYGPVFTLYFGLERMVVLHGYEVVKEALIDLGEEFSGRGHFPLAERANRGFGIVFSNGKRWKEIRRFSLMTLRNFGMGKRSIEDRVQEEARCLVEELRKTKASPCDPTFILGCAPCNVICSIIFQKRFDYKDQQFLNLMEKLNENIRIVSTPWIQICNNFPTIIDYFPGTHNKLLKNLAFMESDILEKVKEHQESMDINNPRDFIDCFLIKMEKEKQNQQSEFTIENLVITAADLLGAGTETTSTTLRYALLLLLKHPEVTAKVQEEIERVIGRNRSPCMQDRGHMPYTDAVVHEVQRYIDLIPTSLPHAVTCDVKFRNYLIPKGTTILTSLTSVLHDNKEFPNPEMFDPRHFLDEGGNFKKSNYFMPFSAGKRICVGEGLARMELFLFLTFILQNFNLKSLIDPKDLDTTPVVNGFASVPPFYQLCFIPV

Compound: CN1CCN(C2=Nc3cc(Cl)ccc3Nc3ccccc32)CC1 [CLOZAPINE]
- Drug metabolism (Cytochrome P450 1A2): 1.12 nmol/min
- Drug metabolism (Cytochrome P450 2A6): 0.17 nmol/min
- Drug metabolism (Cytochrome P450 2C9): 0.22 nmol/min
- Drug metabolism (Cytochrome P450 1A1): 0.024 nmol/min
- Drug metabolism (Cytochrome P450 2C18): 0.41 nmol/min
- Drug metabolism (Cytochrome P450 2C19): 5.11 nmol/min

Reference: ChEMBL document CHEMBL3525934 (Drug Metab Dispos, 2013)
